Key:
[1] = system: HEK293 cells; test: HDAd-LacZ infection with corticosteroid, X-Gal staining for LacZ expression in HEK293 cells; assay type: cell-based; settings: dose range of corticosteroid with HDAd-LacZ
Method: Methods: 116 cells or HEK293 cells were seeded in 12-well or 96-well plates in standard cell culture media. One day later, cells were infected with the gene therapy vector HDAd-LacZ (a helper-dependent adenoviral vector expressing beta-galactosidase (LacZ) under the control of the constitutive CMV promoter) at different multiplicities of infections (MOIs; virus particles per cells seeded) mixed with different amounts/concentrations of the corticosteroids triamcinolone acetonide (TAC; TriamHEXAL®, Hexal AG, Holzkirchen, Germany), betamethasone (Celestan®, MSD, Kenilworth, NJ, USA), or dexamethasone (Lipotalon®, Recordati, Milan, Italy). HDAd-LacZ was produced by GeneQuine Biotherapeutics GmbH (HDAd-LacZ originally sourced from Baylor College of Medicine, USA). In an experiment evaluating different timing or administration of the corticosteroid relative to administration of the HDAs-LacZ, cells were either pre-treated with TAC 3 hours prior to infection with HDAd-LacZ (PRE), TAC treatment and HDAd-LacZ infection was done simultaneously as described above (SIMULTANEOUS), or cells were treated with TAC 3 hours post infection with HDAd-LacZ (POST). One day later, supernatants were aspirated and cell monolayers were stained for LacZ expression using the X-Gal staining kit according to manufacturer's manual (OZ Bioscience, Marseille, France). Macroscopic and microscopic (at 4× or 10× magnification) photos of the stained monolayers were taken (blue staining indicates LacZ expression). A preliminary measure of intensity of the staining was semi-quantitatively measured using ImageJ software by converting the images to 8-bit grayscale and drawing regions of interest around the areas to be measured. The mean intensity values (on a scale of 0-255; 0 being black and 255 being white) were subtracted from 255, divided by 255 and multiplied by 100, i.e. reported values were on a scale of 0-100 (0 being white and 100 being black) where higher values indicate more intense (darker) staining.

[2] = system: rat knee joint; test: Synovial/periarticular inflammation in rat knee joint after intraarticular HDAd-LacZ with or without TAC; assay type: in vivo; settings: coadministration of 0.06 mg TAC with HDAd-LacZ
Method: Rats obtained from Envigo (Indianapolis, IN) were housed in polycarbonate cages, 4 animals per cage. After 4 days acclimatization, on study day 0, animals (mean weight of 310 g) were randomized into groups by bodyweight, 6 animals per group. Following randomization, test article administration was performed by intraarticular injection of 50 μL/joint. In respective groups, animals were treated with: 5E7 VP HDAd-LacZ, 5E8 VP HDAd-LacZ, 5E9 VP HDAd-LacZ, 5E10 VP HDAd-LacZ, 5E7 VP HDAd-LacZ+0.06 mg TAC, 5E8 VP HDAd-LacZ+0.06 mg TAC, 5E9 VP HDAd-LacZ+0.06 mg TAC, 5E10 VP HDAd-LacZ+0.06 mg TAC or vehicle.
For the groups co-treated with HDAd-LacZ and TAC, TAC suspension was prepared by diluting the commercially available injectable suspension (Kenalog 10, Bristol-Myers Squibb) with isotonic saline solution and added to the HDAd-LacZ preparation (i.e. the injection volume of 50 μL of the test article+TAC mixture contained 0.06 mg TAC).
At necropsy on study day 4, the rats were anesthetized with isoflurane. […]
The tissues were evaluated by the investigator microscopically for inflammation and X-gal staining in a blinded manner. The approximate lengths of the medial and lateral synovia were measured using an ocular micrometer. The lengths of the X-gal-stained areas were measured, and the length of staining relative to the total length of the area (%) was determined. […]

Compound | concentration at which enhancement of HDAd-mediated LacZ expression started [1] [ng/mL] | HDAd-LacZ mediated inflammation (synovial/periarticular) [2]
CC1(C)O[C@@H]2C[C@H]3[C@@H]4CCC5=CC(=O)C=C[C@]5(C)[C@@]4(F)[C@@H](O)C[C@]3(C)[C@]2(C(=O)CO)O1 [TAC, triamcinolone acetonide] | 0.18 | reduced
C[C@H]1C[C@H]2[C@@H]3CCC4=CC(=O)C=C[C@]4(C)[C@@]3(F)[C@@H](O)C[C@]2(C)[C@@]1(O)C(=O)CO [betamethasone] | 3.9 | –
C[C@@H]1C[C@H]2[C@@H]3CCC4=CC(=O)C=C[C@]4(C)[C@@]3(F)[C@@H](O)C[C@]2(C)[C@@]1(O)C(=O)CO [dexamethasone] | 3.9 | –

— patent US20260174905A1, “COMPOSITIONS AND METHODS FOR IMPROVED ADENOVIRAL-BASED GENE THERAPY UTILIZING CORT[…]” (Pacira Therapeutics, Inc., priority 2023, published 2026)
